One molecule from patent EP4389156A1, “RA[…] LIGAND COMPOUNDS AND PRECURSORS THEREOF” (Technische Universität München, priority 2022, dated 2024) can be followed below.

The nature of series [1]: Lipophilicity (logD7.4), shake-flask method. The following applies: n-octanol/PBS (pH 7.4), n = 8, mean ± SD. The format is physicochemical. How it is done: The lipophilicity of ^99mTc-labeled PSMA ligands, expressed as distribution coefficient (logD7.4), was determined using the shake-flask method. A solution of approximately 1 MBq of radioligand in 1 mL of a 1:1 mixture of PBS (pH = 7.4) and n-octanol (n = 8) was vortexed vigorously for 3 min. After centrifugation at 9000 rpm for 5 min aliquots of both phases (200 µL n-octanol, 50 µL PBS) were collected and the activity was quantified in a γ-counter. logD7.4 values were calculated as decadic logarithm of the activity concentration ratio between the n-octanol phase and the aqueous phase. Data are given as mean ± standard deviation (SD). Binding to human plasma was determined by incubation of radioligands in human plasma (2 nM concentration, 37 °C for 30 min) and subsequent ultrafiltration (250 µL aliquots, 3200 rpm, 40 min) in Centrifree® ultrafiltration devices (Merck Millipore, Cork, Ireland). The fraction bound to human plasma proteins was calculated as the ratio of unfiltered activity and the total activity in the ultrafiltration device. Measurements were performed in three independent experiments, each with two replicates (n = 6, data are given as mean ± SD). All values were corrected for non-specific binding (control experiments in PBS).

Series [2] concerns the target T1, human serum albumin (HSA) (Homo sapiens, UniProt P02768).
T1 construct: purchased Daicel, Tokyo, Japan H13H-2433
The series is described as follows: HSA binding by high performance affinity chromatography (HPAC). It is filed as in vitro ADME. Particulars: uncomplexed compounds, n = 1. How it is done: HSA binding of the uncomplexed PSMA ligands was determined according to a previously published procedure via HPLC (Valko, K.; Nunhuck, S.; Bevan, C.; Abraham, M. H.; Reynolds, D. P., Fast gradient HPLC method to determine compounds binding to human serum albumin. Relationships with octanol/water and immobilized artificial membrane lipophilicity. J Pharm Sci. 2003, 92, 2236-2248). A Chiralpak HSA column (50 × 3 mm, 5 µm, H13H-2433, Daicel, Tokyo, Japan) was used at a constant flow rate of 0.5 mL/min at rt. Mobile phase A was a freshly prepared 50 mM aqueous solution of NH4OAc (pH 6.9) and mobile phase B was isopropanol (HPLC grade, VWR). The applied gradient for all experiments was 100% A (0 to 3 min), followed by 80% A (3 to 40 min). Prior to the experiment, the column was calibrated using nine reference substances with a HSA binding, known from literature, in the range of 13 to 99% (Valko, K.; Nunhuck, S.; Bevan, C.; Abraham, M. H.; Reynolds, D. P., J Pharm Sci. 2003, 92, 2236-2248; Yamazaki, K.; Kanaoka, M., Computational prediction of the plasma protein-binding percent of diverse pharmaceutical compounds. J Pharm Sci. 2004, 93, 1480-1494). All substances, including the examined PSMA ligands, were dissolved in a 1:1 mixture (v/v) of isopropanol and a 50 mM aqueous solution of NH4OAc (pH 6.9) with a final concentration of 0.5 mg/mL. Non-linear regression was established with the OriginPro 2016G software (Northampton, United States).

The target of a further series is T2, PSMA (Homo sapiens, UniProt Q04609).
T2 construct: endogenous in cells; printed for the internalization assay of the same paragraph
Kind of series: Competitive binding study, inverse IC50 (99mTc-radioligand versus increasing IBA-KuE). The following applies: inverse IC50: IBA-KuE competes against 99mTc-radioligand (0.2 nM/well); higher values = higher affinity; 1 h, 4°C, n = 3, mean ± SD; read-out: IC50, inv. How it is done:
(§1) Competitive binding studies were carried out in analogy to a previously reported procedure. As a modification the non-radiolabeled standard competitor (((S)-1-carboxy-5-(4-(iodo)benzamido)pentyl)carbamoyl)-L-glutamic acid (IBA-KuE) was applied in increasing concentrations (10^-5 - 10^-11 M/well, n = 3 each) whereas the novel PSMA-binding compounds of interest were applied as ^99mTc-labeled radioligands (0.2 nM/well). In this inversed experimental approach, higher values correspond to higher affinities and are referred to as inverse IC50. Poly-L-lysine coated 24-well plates were used (n = 3). Data are given as mean ± SD. To determine the cellular uptake of the ^99mTc-labeled PSMA ligands into LNCaP cells by means of PSMA-mediated internalization at 1 h, a previously reported protocol was applied with assay concentrations of 1.0 nM and 0.2 nM for ^99mTc-labeled PSMA ligands and the reference compound [^125I]IBA-KuE, respectively. Data are corrected for non-specific binding and normalized to the specific internalization of the reference. Results are given as mean ± SD.

Another series has as its system LNCaP cells. The series is described as follows: PSMA-mediated internalization into LNCaP cells. Particulars: 1 h. The format is cell-based. As to the method:
as §1

T2 sequence (Q04609 whole entry): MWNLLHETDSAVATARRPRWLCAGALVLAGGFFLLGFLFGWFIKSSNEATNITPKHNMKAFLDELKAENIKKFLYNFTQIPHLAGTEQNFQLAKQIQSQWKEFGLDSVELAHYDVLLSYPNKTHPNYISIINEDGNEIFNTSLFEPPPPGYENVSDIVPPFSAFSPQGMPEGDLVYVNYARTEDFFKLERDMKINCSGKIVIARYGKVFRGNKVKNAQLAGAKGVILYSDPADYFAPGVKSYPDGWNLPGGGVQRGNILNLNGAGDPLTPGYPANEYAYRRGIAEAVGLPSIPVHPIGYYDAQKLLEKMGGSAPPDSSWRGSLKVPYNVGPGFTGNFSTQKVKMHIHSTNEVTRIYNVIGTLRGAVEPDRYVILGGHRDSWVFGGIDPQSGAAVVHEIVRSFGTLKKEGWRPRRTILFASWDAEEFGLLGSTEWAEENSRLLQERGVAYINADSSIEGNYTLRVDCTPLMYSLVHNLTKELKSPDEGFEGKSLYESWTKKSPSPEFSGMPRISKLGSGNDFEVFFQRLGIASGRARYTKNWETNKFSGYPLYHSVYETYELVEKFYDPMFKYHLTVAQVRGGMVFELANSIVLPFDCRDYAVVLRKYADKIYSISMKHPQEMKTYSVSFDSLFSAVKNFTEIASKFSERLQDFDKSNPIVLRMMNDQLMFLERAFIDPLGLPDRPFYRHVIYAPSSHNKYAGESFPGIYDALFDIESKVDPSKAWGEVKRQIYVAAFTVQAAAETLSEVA
T1 sequence (P02768 25-609): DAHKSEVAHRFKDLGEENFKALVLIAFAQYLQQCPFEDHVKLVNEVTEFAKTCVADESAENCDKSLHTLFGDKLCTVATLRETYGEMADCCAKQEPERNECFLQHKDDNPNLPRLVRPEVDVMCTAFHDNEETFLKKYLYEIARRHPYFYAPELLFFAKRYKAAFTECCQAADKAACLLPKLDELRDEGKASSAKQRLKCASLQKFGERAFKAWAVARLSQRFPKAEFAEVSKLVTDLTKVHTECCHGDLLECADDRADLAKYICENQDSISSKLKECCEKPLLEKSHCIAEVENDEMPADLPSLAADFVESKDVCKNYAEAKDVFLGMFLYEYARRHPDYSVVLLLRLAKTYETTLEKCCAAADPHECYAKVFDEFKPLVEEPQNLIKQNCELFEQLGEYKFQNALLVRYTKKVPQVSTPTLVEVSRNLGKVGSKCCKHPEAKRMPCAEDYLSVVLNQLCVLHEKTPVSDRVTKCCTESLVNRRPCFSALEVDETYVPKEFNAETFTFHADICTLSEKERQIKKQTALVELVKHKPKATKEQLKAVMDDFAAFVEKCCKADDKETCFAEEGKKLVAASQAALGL

As for `CC(C)(C)[Si](O)(c1ccc(C(=O)NC[C@@H](NC(=O)[C@@H](CCC(=O)O)NC(=O)C(CNCCN)CNCCN)C(=O)N[C@H](CCCCNC(=O)CCC(=O)NCCC[C@@H](NC(=O)CC[C@H](NC(=O)N[C@@H](CCC(=O)O)C(=O)O)C(=O)O)C(=O)O)C(=O)O)cc1)C(C)(C)C.[O]=[99Tc+]=[O]` [[^99mTc]Tc-N4-PSMA-12], the logD7.4 in series [1] is on record as -3.35 ± 0.05. For the same molecule, in series [2], the “HSA-binding (HPAC) (%)” value is 47.7%. Further, at PSMA, the inverse IC50 worked out at 11 ± 2.8 nM. In the series on LNCaP cells (37°C, n = 3, as percentage of reference [125I]IBA-KuE, mean ± SD), the “internalization (% IBA-KuE)” value came out at 311 ± 16%. Moreover, the “fold higher internalization than [^99mTc]Tc-N4-PSMA-13” value in the series on LNCaP cells (relative to [^99mTc]Tc-N4-PSMA-13) was found to be 1.9 fold. For the same molecule, in the series on LNCaP cells (relative to [^99mTc]Tc-N4-PSMA-21), the “fold higher internalization than [^99mTc]Tc-N4-PSMA-21” value turned out to be 1.7 fold. Besides, the “fold higher internalization than [^99mTc]Tc-PSMA-I&S” value in the series on LNCaP cells (relative to [^99mTc]Tc-PSMA-I&S) is on record as 1.3 fold.
